# Laboratory results: paper PMC7358525, “Characterization of PF-6142, a Novel, Non-Catecholamine Dopamine Receptor D1 Agonist, in Murine and Nonhuman Primate Models of Dopaminergic Activation” (Frontiers in Pharmacology, 2020)
# Assays:
# [1] = tested on: prepulse inhibition of startle; experiment: Mouse prepulse inhibition (PPI) and acoustic startle; format: in vivo
# Protocol: Drug and behaviorally naïve adult male C57BL/6J mice (9–11 weeks of age; n=8 per dose group) were used for PPI experiments. Subjects were tested individually in SR-Lab acoustic startle chambers (San Diego Instruments, San Diego CA, USA) equipped with a restrainer mounted atop a piezoelectric accelerometer which measured transduced movement in response to the presentation of audio stimuli presented through a speaker mounted 20 cm above the animal. Subjects were acclimated to an anteroom adjacent to the testing room at minimum 60 min prior to testing. Test sessions began with a 5 min acclimation period to background noise (65 dB) followed by presentation of six randomized repetitions of the 120 dB startle stimulus (40 ms duration) presented alone or paired in combination with a pre-pulse stimulus of 68, 72, or 74 db (20 msec in duration) presented 80 msec prior to the 120 dB startle stimulus, which was equivalent to +3, +7, and +9 db over background noise, respectively. Data were also recorded for no stimulus values to evaluate background level of response. The inter-trial interval between stimulus presentations was randomized and ranged from 10 to 20 s. Test compounds were administered 30 min (s.c.) prior to testing. […] Percent PPI was calculated for each individual subject as the relative change in the 120 dB startle response in the presence of each prepulse intensity using the formula: 100-((prepulse-pulse)/pulse)*100 as previously described ([Ralph-Williams et al., 2003]).
# The experiment was analyzed using a two-way mixed model ANOVA (lme4 library in R software). The model included prepulse stimulus intensity levels, treatment (as all combinations of pre-treatment and treatment), and their interaction as fixed factors and random intercept, random slope for each animal as random factors. […] In order to adjust for multiple hypothesis testing we used false discover rate method which controls the expected proportion of false discoveries among the rejected hypotheses. For all statistical tests, p < 0.05 between groups was considered significant.
# [2] = tested on: ketamine-induced working memory deficits; experiment: Spatial delayed response (SDR) task in the nonhuman primate; format: in vivo, rhesus monkeys
# Excerpt: This study was designed to test the hypothesis that PF-6142 would provide significant protection versus the ketamine-induced working memory deficits in nonhuman primates.
# Rhesus monkeys were trained to stability on a variable SDR task in a sound-attenuated Wisconsin General Testing Apparatus ([Roberts et al., 2010]). Briefly, subjects observe while the investigator baiting one of two to seven wells with a highly preferred food reward and then covers all the wells with identical square plaques. An opaque screen is then lowered for one of five variable delays, which are pseudorandomized across trials within a session. Thus, delays are defined as 0–4 N, where “N” is a value that is animal dependent and ranges from 1 to 10 s depending upon the difficulty level of the task at which an animal reaches the criterion of stable performance. At the end of the delay period, the opaque screen is raised, and the animal must select the well that had been baited to obtain a reward. Each test session consists of 20 trials wherein both the baited well and delay length are pseudorandomized across trials. Before study initiation, all subjects were required to reach stability over a period of 10 consecutive test sessions, where stability was defined as an average of 65–75% correct. Stability was attained by varying the number of wells and the delay value for each animal. Subjects were originally trained on a two-well board with an N value of 1. […] Once stability was attained for a given number of wells and N value, that combination was kept constant throughout the course of the study ([Roberts et al., 2010]). The range of stable performance for the 10 subjects was two to five wells and an N value of 1–7 s (median, four-well testing board, N = 5 s). Data were transformed using logarithmic function [log(x+5)] to improve normality and analyzed using ANOVA.
# Subjects received pretreatment with vehicle (sterile saline solution) or PF-6142 (0.0015, 0.015, 0.15 mg/kg, s.c.) 4 h before cognitive testing. They then received an intramuscular injection of either vehicle (sterile saline) or ketamine (0.7–1.7 mg/kg; Fort Dodge Co.) 0.25 h before cognitive testing. […] Thus, for the present study, one monkey received 0.7 mg/kg, seven monkeys received 1.0 mg/kg, and two monkeys received 1.7 mg/kg of ketamine. The vehicle/PF-6142 and vehicle/ketamine treatments were assigned using a randomized Latin square design with a total of eight conditions. Except for the vehicle/vehicle condition, there was a minimum 2-week washout period between all acute challenges during which time animals were required to “restabilize” to baseline performance levels, which was defined as at least three consecutive testing sessions wherein cognitive performance ranged between 65% and 75% correct.
# [3] = PK, brain exposure and plasma/brain tissue binding studies; format: in vivo; settings: data not presented
# Protocol: Across the set of experiments, PK was either collected from satellite animals or in separate, dedicated studies. In addition to plasma PK, exposures were obtained in brain tissue for rat and mouse, and plasma protein binding and brain tissue binding were measured. Using the measured exposures, partitioning, and binding parameters, and the
# Exposures increased in a generally dose proportional manner across most of the doses used in the pharmacology studies, and inter animal variability was typically low. Exposures were obtained in brain tissues for rat and mouse, and plasma protein binding and brain tissue binding were measured.
# human D1 receptor = settings: stated in discussion, no data or reference printed; cited from earlier work
# human D5 receptor = settings: stated in discussion, no data or reference printed; cited from earlier work
smiles,measurement,setting,value
Cc1cc(Oc2nccc3occc23)ccc1-c1c(C)ncc2nccn12 [PF-6142],effect on %PPI in combination with risperidone,"[1]; PF-6142 1.78 mg/kg + risperidone, 3, 7, 9 dB prepulse",no effect
same,%PPI vs vehicle,"[1]; PF-6142 1.78 mg/kg alone, significant only at 9 dB prepulse intensity (p=0.029)",modest impairments in %PPI
same,"% PPI, PF-6142 alone (pilot experiments, Figure 4C)",[1]; adult C57BL/6J mice,modest non-significant reductions in % PPI
same,effect on risperidone (0.56 mg/kg)-reduced startle responses,[1]; in the presence of PF-6142,not altered
same,percent correct on the SDR task after pretreatment + ketamine (range over doses),[2]; PF-6142 0.0015-0.15 mg/kg s.c. 4 h before testing,42.5–52.1%
same,improvement of performance vs ketamine,"[2]; PF-6142 0.0015-0.15 mg/kg s.c., all doses",more than 10 % correct
same,working memory performance under normal conditions (pretreatment followed by placebo),[2]; PF-6142 without ketamine,no effect on its own
same,brain penetration,[3]; brain tissues of rat and mouse,fully brain penetrant
same,unbound concentrations between the brain and plasma compartments,[3]; rat and mouse,approaching unity
same,affinity,human D1 receptor,moderate affinity
same,affinity,human D5 receptor,moderate affinity
